IC50 and IC90 data for 27 molecules are collected here from ChEMBL document CHEMBL4483862, “Open-source discovery of chemical leads for next-generation chemoprotective antimalarials” (2018).

This assay has as its system Plasmodium berghei. Description: Luciferase/luciferin-expressing antifolate-resistant parasites were used to infect a culture of HepG2 cells that were pre-incubated with compounds. Infected hepatocytes emit light due to the luciferase reaction. Assay results are presented as the percent inhibition of light emission compared to control. […]. In kind it is functional. To be noted: sporozoite; for IC90: read-out: LUCIFERASE INFECTION ASSAY - IC90.

[1] abbreviates: read-out: LUCIFERASE INFECTION ASSAY - IC50.

Bounds are passed on as bounds.

Regarding `CC(C)c1ccc(NC(=O)Nc2csc(Cc3c(Cl)cccc3Cl)n2)cc1`, the IC90 is above 7.85 µM. Moreover, the IC50 under setting [1] is above 7.85 µM.

Take `COc1ccc(-c2cc(NS(=O)(=O)c3cccc(F)c3)n(-c3ccc(Cl)c(Cl)c3)n2)cc1`: the IC90 is above 6.7 µM. The concentration for half-maximal inhibition (IC50) (HEPG2TOX_HILL_SLOPE 1.65, HEPG2TOX_R_SQUARED 0.946, PBLUC_HILL_SLOPE 2.05, PBLUC_R_SQUARED 0.116, read-out: LUCIFERASE INFECTION ASSAY - IC50) worked out at 2.95 µM.

In the case of `FC(F)(F)c1cccc(-c2noc(CCc3nc4ccccc4[nH]3)n2)c1`, the concentration for an effect of 90% (IC90) came to 7.22 µM. Further, the 50% inhibitory concentration (IC50) (PBLUC_HILL_SLOPE 3.19, PBLUC_R_SQUARED 0.657, read-out: LUCIFERASE INFECTION ASSAY - IC50) worked out at 3.63 µM.

`Clc1nc2ccccc2cc1/C=N/C1CCCCC1`: the IC90 was above 10 µM. Further, the IC50 under setting [1] is above 10 µM.

Consider `Cc1nn(-c2ccccc2)c2nc(-c3cccs3)cc(C(=O)N3CCc4ccccc43)c12`, for which the IC90 is above 10 µM. Moreover, the half-maximal inhibitory concentration (IC50) (FFLUC_HILL_SLOPE 2.26, FFLUC_R_SQUARED 0.632, PBLUC_HILL_SLOPE 0.862, PBLUC_R_SQUARED 0.727, read-out: LUCIFERASE INFECTION ASSAY - IC50) came out at 4.63 µM.

Consider `CC(C)[C@H](Nc1ccc(C(F)(F)F)cc1Cl)C(=O)Nc1ccc(C#N)cc1`, for which the concentration for an effect of 90% (IC90) turned out to be 3.14 µM. Moreover, the IC50 (HEPG2TOX_HILL_SLOPE 3.39, HEPG2TOX_R_SQUARED 0.849, PBLUC_HILL_SLOPE 25.1, 22.4, PBLUC_R_SQUARED 0.626, 0.774, read-out: LUCIFERASE INFECTION ASSAY - IC50) amounted to 2.85 µM.

For `O=C(CCN1CCN(c2ccccc2)CC1)N/N=C/c1cc(Br)ccc1O`, the 90% effect concentration (IC90) was above 10 µM. The IC50 (HEPG2TOX_HILL_SLOPE 9.92, HEPG2TOX_R_SQUARED 0.702, PBLUC_HILL_SLOPE 4.41, PBLUC_R_SQUARED 0.46, read-out: LUCIFERASE INFECTION ASSAY - IC50) was found to be 6.08 µM.

Turning to `Cc1ccccc1-c1cn2c(-c3cccc(C(=O)N4CCN(C)CC4)c3)cnc2cn1`, the IC90 was above 8.02 µM. Further, the IC50 (PBLUC_HILL_SLOPE 1.06, PBLUC_R_SQUARED 0.743, read-out: LUCIFERASE INFECTION ASSAY - IC50) came out at 3.76 µM.

As for `CC(=O)c1cccc(-c2cnc3cnc(-c4ccccc4)cn23)c1`, the IC90 was above 10.5 µM. Also, the IC50 (PBLUC_HILL_SLOPE 2.79, PBLUC_R_SQUARED 0.249, read-out: LUCIFERASE INFECTION ASSAY - IC50) turned out to be 9.07 µM.

With `COc1ccc(Nc2nc(NCC3CC3)nc3cc(-c4ccccc4)sc23)cc1OC`, the IC90 is above 7.63 µM. The half-maximal inhibitory concentration (IC50) (HEPG2TOX_HILL_SLOPE 1.76, HEPG2TOX_R_SQUARED 0.98, PBLUC_HILL_SLOPE 10.6, PBLUC_R_SQUARED 0.159, read-out: LUCIFERASE INFECTION ASSAY - IC50) is 6.32 µM.

As for `Cc1ccc(/N=c2\scc(-c3cccc(C(F)(F)F)c3)n2/N=C/c2ccc3ncccc3c2)c(C)c1`, the IC90 was above 10 µM. Moreover, the 50% inhibitory concentration (IC50) (FFLUC_HILL_SLOPE 2.84, FFLUC_R_SQUARED 0.529, read-out: LUCIFERASE INFECTION ASSAY - IC50) is above 10 µM.

As for `Cc1ccc(N2C(=O)c3ccccc3C(C=NNc3ccc(S(=O)(=O)N4CCCC4)cc3[N+](=O)[O-])C2=O)cc1` (centres undefined), the concentration for an effect of 90% (IC90) was above 10 µM. Besides, the half-maximal inhibitory concentration (IC50) (FFLUC_HILL_SLOPE 3.06, FFLUC_R_SQUARED 0.613, HEPG2TOX_HILL_SLOPE 13, HEPG2TOX_R_SQUARED 0.977, read-out: LUCIFERASE INFECTION ASSAY - IC50) is above 10 µM.

With `CCOc1cc(C(=O)N/N=C/c2c(C)[nH]c3ccccc23)cc(OCC)c1OCC`, the concentration for an effect of 90% (IC90) is above 10 µM. For the same molecule, the IC50 (HEPG2TOX_HILL_SLOPE 8.54, 2.60, HEPG2TOX_R_SQUARED 0.0840, 0.979, PBLUC_HILL_SLOPE 9.58, PBLUC_R_SQUARED 0.194, read-out: LUCIFERASE INFECTION ASSAY - IC50) worked out at 9.1 µM.

Turning to `N#CCCNS(=O)(=O)c1cccc(C(=O)Nc2ccc(Nc3ccccc3)cc2)c1`, the 90% effect concentration (IC90) is 4.83 µM. Under “HEPG2TOX_HILL_SLOPE 1.27, HEPG2TOX_R_SQUARED 0.641, PBLUC_HILL_SLOPE 2.13, PBLUC_R_SQUARED 0.388, read-out: LUCIFERASE INFECTION ASSAY - IC50”, the IC50 worked out at 1.72 µM.

With `Cc1ccc(C(C)C)c(OCCCNCCc2ccccc2)c1`, the IC90 turned out to be 9.99 µM. Further, the concentration for half-maximal inhibition (IC50) (HEPG2TOX_HILL_SLOPE 12.1, HEPG2TOX_R_SQUARED 0.387, PBLUC_HILL_SLOPE 24.3, PBLUC_R_SQUARED 0.56, read-out: LUCIFERASE INFECTION ASSAY - IC50) is 9.13 µM.

On to `Cc1nc(SCc2nc(-c3cccs3)no2)c(C#N)c(C)c1C`, for which the IC90 was 0.683 µM. Further, under setting [1], the IC50 was found to be 0.0298 µM.

For `CCCN(C(=O)c1ccccc1CCc1ccccc1)c1nc(-c2ccc(Cl)cc2Cl)cs1`, the IC90 was above 10 µM. The IC50 under setting [1] is above 10 µM.

As for `O=C(Nc1cc(C(F)(F)F)cc(C(F)(F)F)c1)Nc1sccc1Cl`, the IC90 stood at 2.93 µM. Under “HEPG2TOX_HILL_SLOPE 3.73, HEPG2TOX_R_SQUARED 0.682, PBLUC_HILL_SLOPE 3.61, PBLUC_R_SQUARED 0.656, read-out: LUCIFERASE INFECTION ASSAY - IC50”, the IC50 turned out to be 1.59 µM.

As to `Cc1ccccc1N1CCN(Cc2csc(-c3ccccc3Cl)n2)CC1`, the IC90 amounted to 3.67 µM. The IC50 (HEPG2TOX_HILL_SLOPE 2.7, HEPG2TOX_R_SQUARED 0.815, PBLUC_HILL_SLOPE 21.2, PBLUC_R_SQUARED 0.497, read-out: LUCIFERASE INFECTION ASSAY - IC50) was 3.3 µM.

Consider `O=C(Nc1ccc(F)cc1F)c1cc(Cl)ccc1O`, for which the 90% effect concentration (IC90) is 4.37 µM. The IC50 (HEPG2TOX_HILL_SLOPE 14.4, HEPG2TOX_R_SQUARED 0.715, PBLUC_HILL_SLOPE 17.6, PBLUC_R_SQUARED 0.0303, read-out: LUCIFERASE INFECTION ASSAY - IC50) is 3.86 µM.

Turning to `CNC(=O)c1ccc(CN(CCOc2cccc(F)c2)C2CC2)cc1`, the 90% effect concentration (IC90) was above 10 µM. For the setting “PBLUC_HILL_SLOPE 4.75, PBLUC_R_SQUARED 0.3, read-out: LUCIFERASE INFECTION ASSAY - IC50”, the concentration for half-maximal inhibition (IC50) was 6.72 µM.

Turning to `CCNC(=O)c1cc(Cl)c(OCc2ccccc2)c(OC)c1`, the concentration for an effect of 90% (IC90) was above 10.3 µM. Also, the concentration for half-maximal inhibition (IC50) (PBLUC_HILL_SLOPE 2.26, PBLUC_R_SQUARED 0.647, read-out: LUCIFERASE INFECTION ASSAY - IC50) is 5.81 µM.

In the case of `CC1CCc2sc(C(=O)OCC(=O)NCCN3C(=O)CSC3=S)cc2C1` (centres undefined), the IC90 is above 10 µM. Besides, the concentration for half-maximal inhibition (IC50) under setting [1] was above 10 µM.

`CCOc1cc(/C=C2\CSc3c(F)cccc3C2=O)cc(Cl)c1O`: the 90% effect concentration (IC90) is above 10 µM. In addition, the half-maximal inhibitory concentration (IC50) (PBLUC_HILL_SLOPE 15.8, PBLUC_R_SQUARED 0.377, read-out: LUCIFERASE INFECTION ASSAY - IC50) came out at 9.68 µM.

For `CN1CCN(/N=C/c2c(-c3ccccc3)n(-c3ccccc3)c3ccccc23)CC1`, the IC90 is above 10 µM. Besides, the IC50 (PBLUC_HILL_SLOPE 15.1, PBLUC_R_SQUARED 0.218, read-out: LUCIFERASE INFECTION ASSAY - IC50) was 9.13 µM.

Turning to `COc1cc(-c2cc(-c3ccccc3)cnc2N)ccc1O`, the IC90 turned out to be 4.45 µM. For the same molecule, for the setting “PBLUC_HILL_SLOPE 13.8, PBLUC_R_SQUARED 0.558, read-out: LUCIFERASE INFECTION ASSAY - IC50”, the half-inhibitory concentration (IC50) was 3.8 µM.

Regarding `CC(NC(C)c1ccc(Cl)cc1)C(=O)Nc1sccc1C(N)=O` (centres undefined), the IC90 is above 10 µM. The IC50 (PBLUC_HILL_SLOPE 1.06, PBLUC_R_SQUARED 0.69, read-out: LUCIFERASE INFECTION ASSAY - IC50) came to 2.14 µM.
